33 compounds from patent US10059703B2, “3-alkyl-5-fluoro-4-substituted-imino-3,4-dihydropyrimidin-2(1H)-one derivatives as fungicides” (Adama Makhteshim Ltd., priority 2012, dated 2018) can be followed below.

A word on the melting point: it is the temperature, or range, at which the solid turns liquid.

One data set has as its system Septoria tritici. Put plainly: Fungicidal activity: leaf blotch of wheat, one-day protectant and three-day curative tests on wheat plants. The conditions noted are these: Zymoseptoria tritici. It is filed as in vivo. How it is done:
Example 16: Evaluation of Fungicidal Activity: Leaf Blotch of Wheat (Mycosphaerella graminicola; anamorph: Septoria tritici; Bayer code SEPTTR)
Wheat plants (variety Yuma) were grown from seed in a greenhouse in 50% mineral soil/50% soil-less Metro mix until the first leaf was fully emerged, with 7-10 seedlings per pot. These plants were inoculated with an aqueous spore suspension of Septoria tritici either prior to or after fungicide treatments. After inoculation the plants were kept in 100% relative humidity (one day in a dark dew chamber followed by two to three days in a lighted dew chamber) to permit spores to germinate and infect the leaf. The plants were then transferred to a greenhouse for disease to develop.
The following tables present the activity of typical compounds of the present disclosure when evaluated in these experiments. The effectiveness of the test compounds in controlling disease was determined by assessing the severity of disease on treated plants, then converting the severity to percent control based on the level of disease on untreated, inoculated plants.
The following table presents the activity of typical compounds of the present disclosure when evaluated in these experiments. The effectiveness of the test compounds in controlling disease was determined by assessing the severity of disease on treated plants, then converting the severity to percent control based on the level of disease on untreated, inoculated plants.

The mark [1] stands for this setting: 24 h, One-Day Protectant (1 DP), 100 ppm, wheat plants (variety Yuma), read-out: SEPTTR 100 PPM 1 DP (% Disease Control rating).
[2] abbreviates: 72 h, Three-Day Curative (3 DC), 100 ppm, wheat plants (variety Yuma), read-out: SEPTTR 100 PPM 3 DC (% Disease Control rating).
Where [3] appears, read: 24 h, read-out: SEPTTR 100 PPM 1 DP (% Disease Control rating).
The mark [4] stands for this setting: 72 h, read-out: SEPTTR 100 PPM 3 DC (% Disease Control rating).

Where two headings read alike, the source gives them in different places.

On to `[2H]C([2H])([2H])/N=c1\c(F)cn(S(=O)(=O)c2ccccc2)c(=O)n1C([2H])([2H])[2H]` [Compound F61, 5-fluoro-1-(phenylsulfonyl)-3-trideuteriomethyl-4-(trideuteriomethylimino)-3,4-dihydropyrimidin-2(1H)-one], for which the pest or weed control at 100 ppm in the data set on Septoria tritici (setting [1]) and in the data set on Septoria tritici (setting [2]) was 0 to 25% in each case.
Take `CC(C)c1ccc(S(=O)(=O)n2cc(F)/c(=N\Cc3ccccc3F)n(C)c2=O)cc1` [Compound F56]: the melting point is 140 to 143 °C. In the data set with Septoria tritici (setting [1]), the pest or weed control at 100 ppm is 0 to 25%. Also, the pest or weed control at 100 ppm in the data set on Septoria tritici (setting [2]) is 0 to 25%.
In the case of `C/N=c1\c(F)cn(S(=O)(=O)c2ccccc2)c(=O)n1C` [Compound F2], the melting point is 142 to 144 °C. In addition, the pest or weed control at 100 ppm with Septoria tritici (setting [1]) fell in the range of 76 to 100%. In the data set with Septoria tritici (setting [2]), the pest or weed control at 100 ppm is 51 to 75%.
The compound `Cc1cccc(S(=O)(=O)n2cc(F)/c(=N\C(=O)Oc3ccccc3)n(C)c2=O)c1` [Compound F42] displayed a melting point of 187 to 188 °C. Moreover, in the data set on Septoria tritici (setting [3]), the pest or weed control at 100 ppm lay in the range of 76 to 100%. Also, the pest or weed control at 100 ppm in the data set with Septoria tritici (setting [4]) lay within 0 to 25%.
The compound `C/N=c1\c(F)cn(S(=O)(=O)C2CC2)c(=O)n1C` [Compound F28] returned a melting point of 102.2 to 104 °C. The pest or weed control at 100 ppm with Septoria tritici (setting [1]) was in the range of 0 to 25%. In the data set on Septoria tritici (setting [2]), the pest or weed control at 100 ppm was in the range of 51 to 75%.
In the same order, the values of `CC(=O)/N=c1\c(F)cn(S(=O)(=O)c2cc(Cl)sc2Cl)c(=O)n1C` [Compound F36] are 154 °C, 76 to 100% and 51 to 75%.
In the same order, the values of `C/N=c1\c(F)cn(S(=O)(=O)c2ccc(OC)c(F)c2)c(=O)n1C` [Compound F13] are 138.9 to 140.3 °C, 76 to 100% and 76 to 100%.
In turn, `C/N=c1\c(F)cn(S(=O)(=O)c2cc(Cl)sc2Cl)c(=O)n1C` [Compound F9] returned a melting point of 157.1 to 158 °C. The pest or weed control at 100 ppm in the data set with Septoria tritici (setting [1]) lay within 76 to 100%. In addition, the pest or weed control at 100 ppm with Septoria tritici (setting [2]) was in the range of 76 to 100%.
Take `Cn1c(=O)n(S(=O)(=O)c2cc(Cl)sc2Cl)cc(F)/c1=N\Cc1ccccc1F` [Compound F59]: the melting point is 108 to 111 °C. For the same compound, in the data set with Septoria tritici (setting [1]), the pest or weed control at 100 ppm was 0 to 25%. Moreover, the pest or weed control at 100 ppm in the data set with Septoria tritici (setting [2]) fell in the range of 0 to 25%.
The compound `Cn1c(=O)n(S(=O)(=O)c2ccccc2)cc(F)/c1=N\C(=O)Oc1ccccc1` [Compound F38] showed a melting point of 170 to 171 °C. For the same compound, the pest or weed control at 100 ppm with Septoria tritici (setting [3]) lay within 76 to 100%. Further, the pest or weed control at 100 ppm with Septoria tritici (setting [4]) is 76 to 100%.
Regarding `C/N=c1\c(F)cn(S(=O)(=O)c2cc(C)c(Cl)cc2C)c(=O)n1C` [Compound F22], the pest or weed control at 100 ppm with Septoria tritici (setting [1]) and with Septoria tritici (setting [2]) was 76 to 100% in each case.
In turn, `CC(=O)/N=c1\c(F)cn(S(=O)(=O)c2ccc(C)cc2)c(=O)n1C` [Compound F29] displayed a melting point of 134.6 to 136.2 °C. Further, the pest or weed control at 100 ppm in the data set with Septoria tritici (setting [1]) was 76 to 100%. Also, the pest or weed control at 100 ppm with Septoria tritici (setting [2]) was 76 to 100%.
In turn, `Cn1c(=O)n(S(=O)(=O)c2ccccc2)cc(F)/c1=N\Cc1ccccc1F` [Compound F52] returned a melting point of 189 to 192 °C. Besides, in the data set with Septoria tritici (setting [1]), the pest or weed control at 100 ppm lay within 0 to 25%. For the same compound, the pest or weed control at 100 ppm in the data set on Septoria tritici (setting [2]) was in the range of 0 to 25%.
Consider `COc1ccc(S(=O)(=O)n2cc(F)/c(=N\C(=O)Oc3ccccc3)n(C)c2=O)cc1` [Compound F24, phenyl (5-fluoro-1-((4-methoxyphenyl)sulfonyl)-3-methyl-2-oxo-2,3-dihydropyrimidin-4(1H)-ylidene)carbamate], for which the melting point was 190 to 193 °C. Further, in the data set on Septoria tritici (setting [3]), the pest or weed control at 100 ppm is 0 to 25%. For the same compound, the pest or weed control at 100 ppm in the data set on Septoria tritici (setting [4]) was 0 to 25%.
`C/N=c1\c(F)cn(S(=O)(=O)c2cccs2)c(=O)n1C` [Compound F4] returned a melting point of 136 to 138 °C. Besides, in the data set with Septoria tritici (setting [1]), the pest or weed control at 100 ppm lay in the range of 76 to 100%. The pest or weed control at 100 ppm with Septoria tritici (setting [2]) fell in the range of 76 to 100%.
On to `CC(=O)/N=c1\c(F)cn(S(=O)(=O)c2cc(C)c(Cl)cc2C)c(=O)n1C` [Compound F35], for which the melting point is 173 °C. For the same compound, the pest or weed control at 100 ppm in the data set with Septoria tritici (setting [1]) lay in the range of 76 to 100%. For the same compound, in the data set with Septoria tritici (setting [2]), the pest or weed control at 100 ppm was 26 to 50%.
For `C/N=c1\c(F)cn(S(=O)(=O)c2ccc(C)c(Cl)c2)c(=O)n1C` [Compound F10] the same measures were 149.4 to 151 °C, 76 to 100% and 51 to 75%.
As to `CC(C)c1ccc(S(=O)(=O)n2cc(F)/c(=N\C(=O)Oc3ccccc3)n(C)c2=O)cc1` [Compound F41], the melting point was in the range of 180 to 181 °C. In addition, the pest or weed control at 100 ppm with Septoria tritici (setting [3]) was in the range of 0 to 25%. The pest or weed control at 100 ppm in the data set on Septoria tritici (setting [4]) was 0 to 25%.
`C/N=c1\c(F)cn(S(=O)(=O)c2ccc(C)cc2)c(=O)n1C` [Compound F3] yielded a melting point of 117 to 123 °C. Also, the pest or weed control at 100 ppm in the data set with Septoria tritici (setting [1]) was 76 to 100%. Besides, in the data set on Septoria tritici (setting [2]), the pest or weed control at 100 ppm was in the range of 51 to 75%.
As for `COc1ccc(S(=O)(=O)n2cc(F)/c(=N\C(C)=O)n(C)c2=O)cc1` [Compound F31, N-(5-fluoro-1-((4-methoxyphenyl)sulfonyl)-3-methyl-2-oxo-2,3-dihydropyrimidin-4(1H)-ylidene)acetamide], the pest or weed control at 100 ppm in the data set on Septoria tritici (setting [1]) and with Septoria tritici (setting [2]) was 76 to 100% each time.
`COC(=O)/N=c1\c(F)cn(S(=O)(=O)c2ccc(C)cc2)c(=O)n1C` [Compound F46] yielded a melting point of 145 to 146 °C. Further, the pest or weed control at 100 ppm with Septoria tritici (setting [1]) was 0 to 25%. Further, the pest or weed control at 100 ppm with Septoria tritici (setting [2]) lay within 0 to 25%.
`COc1ccc(S(=O)(=O)n2cc(F)/c(=N\Cc3ccccc3F)n(C)c2=O)cc1` [Compound F53, 5-fluoro-4-((2-fluorobenzyl)imino)-1-((4-methoxyphenyl)sulfonyl)-3-methyl-3,4-dihydropyrimidin-2(1H)-one] came in with a melting point of 188 to 191 °C. Besides, the pest or weed control at 100 ppm in the data set on Septoria tritici (setting [1]) fell in the range of 0 to 25%. Further, the pest or weed control at 100 ppm with Septoria tritici (setting [2]) lay in the range of 0 to 25%.
The compound `Cc1ccc(S(=O)(=O)n2cc(F)/c(=N\Cc3ccccc3F)n(C)c2=O)cc1` [Compound F54] displayed a melting point of 184 to 187 °C. Besides, in the data set on Septoria tritici (setting [1]), the pest or weed control at 100 ppm was in the range of 0 to 25%. The pest or weed control at 100 ppm in the data set with Septoria tritici (setting [2]) lay within 0 to 25%.
For the compound `Cc1ccc(S(=O)(=O)n2cc(F)/c(=N\C(=O)Oc3ccccc3)n(C)c2=O)cc1` [Compound F39], the melting point lay within 200 to 202 °C. Moreover, in the data set on Septoria tritici (setting [3]), the pest or weed control at 100 ppm was in the range of 26 to 50%. Moreover, in the data set on Septoria tritici (setting [4]), the pest or weed control at 100 ppm lay in the range of 26 to 50%.
With `CC(=O)/N=c1\c(F)cn(S(=O)(=O)c2ccccc2)c(=O)n1C` [Compound F30], the melting point turned out to be 174 °C. In addition, the pest or weed control at 100 ppm in the data set with Septoria tritici (setting [1]) lay in the range of 76 to 100%. Besides, in the data set with Septoria tritici (setting [2]), the pest or weed control at 100 ppm was 76 to 100%.
`COC(=O)/N=c1\c(F)cn(S(=O)(=O)c2cc(Cl)sc2Cl)c(=O)n1C` [Compound F51] returned a melting point of 148 to 149 °C. For the same compound, the pest or weed control at 100 ppm in the data set on Septoria tritici (setting [1]) lay within 0 to 25%. In the data set on Septoria tritici (setting [2]), the pest or weed control at 100 ppm was in the range of 0 to 25%.
`C/N=c1\c(F)cn(S(=O)(=O)c2ccc(Cl)cc2)c(=O)n1C` [Compound F5]: the melting point lay within 130 to 134 °C. Also, the pest or weed control at 100 ppm with Septoria tritici (setting [1]) was 76 to 100%. The pest or weed control at 100 ppm in the data set with Septoria tritici (setting [2]) lay within 76 to 100%.
Consider `C/N=c1\c(F)cn(S(=O)(=O)c2ccc(F)cc2Cl)c(=O)n1C` [Compound F21], for which the melting point lay in the range of 109 to 112 °C.
On to `C/N=c1\c(F)cn(S(=O)(=O)c2sc(C)nc2C)c(=O)n1C` [Compound F23], for which the pest or weed control at 100 ppm with Septoria tritici (setting [1]) fell in the range of 26 to 50%; in the data set on Septoria tritici (setting [2]), 76 to 100%.
In the same order, the values of `[2H]C([2H])([2H])/N=c1\c(F)cn(S(=O)(=O)c2ccc(C)cc2)c(=O)n1C([2H])([2H])[2H]` [Compound F62, 5-fluoro-1-((4-methylphenyl)sulfonyl)-3-trideuteriomethyl-4-(trideuteriomethylimino)-3,4-dihydropyrimidin-2(1H)-one] are 0 to 25% and 0 to 25%.
For `[2H]C([2H])([2H])/N=c1\c(F)cn(S(=O)(=O)c2ccc(OC)cc2)c(=O)n1C([2H])([2H])[2H]` [Compound F63, 5-fluoro-1-((4-methoxyphenyl)sulfonyl)-3-trideuteriomethyl-4-(trideuteriomethylimino)-3,4-dihydropyrimidin-2(1H)-one] the same measures were 0 to 25% and 0 to 25%.
For `Cc1ccc(S(=O)(=O)n2cc(F)/c(=N/C(=O)C(C)C)n(COC(=O)C(C)C)c2=O)cc1` [Compound F25, Z)-(5-fluoro-6-(isobutyrylimino)-2-oxo-3-tosyl-2,3-dihydropyrimidin-1(6H)-yl)methyl isobutyrate] the same measures were 0 to 25% and 76 to 100%.
`COc1ccc(S(=O)(=O)n2cc(F)/c(=N/C(C)=O)n(C)c2=O)cc1` [Compound F26]: the pest or weed control at 100 ppm with Septoria tritici (setting [1]) and in the data set with Septoria tritici (setting [2]) was 76 to 100% each time.
